{"source": "patent US20230322743A1", "about": "“NOVEL […] DERIVATIVES HAVING PRODRUG PROPERTIES” (Compass Pathfinder Limited, priority 2020, published 2023)", "key": {"[1]": {"system": "monoamine neurotransmitter release", "test": "Microdialysis of nucleus accumbens with HPLC analysis of dopamine, noradrenaline and serotonin", "type": "in vivo, Male Sprague Dawley rats", "details": "rat, PO, 5 mg/kg"}, "[2]": {"system": "behavioural measures of serotonin syndrome", "test": "Behavioural observations for measures of serotonin syndrome in rats", "details": "rat, PO, 5 mg/kg; scored post-treatment up to 2 hours"}, "[3]": {"test": "Micro shake flask LogD", "details": "for Mean LogD: Octanol:PBS 1:9 at pH 7.4, 10 μM, six replicates", "protocol": "6 replicates of each test compound were incubated at 10 μM in a 1:9 ratio of Octanol:PBS at pH 7.4. Following a two hour incubation at room temperature shaking at 600 rpm, the incubation plate was centrifuged for 15 minutes to separate the layers and then two aliquots were removed from the PBS layer. The first was left neat and the second was diluted 10-fold to give dilute samples. Internal standards were added to both the calibration curve and the PBS incubation samples for analysis on LC MS/MS. […] 5,6-MDAI-tryptophanamide and 3,4-MDA-tryptophanamide were prepared as hemioxalate salts.\nLogD was measured as the concentration in the PBS layer against the generated calibration curve relative to the starting concentration of 10 μM. All 6 replicates of the neat samples were averaged to give one value for each, with the same calculation performed for the dilute sample values.\n6 replicates of each test compound were incubated at 10 μM in a 1:9 ratio of Octanol:PBS at pH 7.4. Following a two hour incubation at room temperature shaking at 600 rpm, the incubation plate was centrifuged for 15 minutes to separate the layers and then two aliquots were removed from the PBS layer. The first was left neat and the second was diluted 10-fold to give dilute samples."}, "[4]": {"test": "Kinetic turbidimetric solubility assay", "details": "for Solubility: Example 12, 0.01 M phosphate buffered saline pH 7.4, 2% DMSO, room temperature, maximum concentration tested 200 μM, test compounds as hemioxalate salts; for solubility at 5 min: phosphate buffered saline, pH 7.4, aqueous buffer, kinetic from dmso stock"}, "[5]": {"system": "rats", "details": "previously shown, Baumann et al. 2008; cited from earlier work"}, "[6]": {"system": "locomotor activity", "test": "Locomotor activity in rats following oral dosing (EthoVision tracking)", "type": "in vivo, Male Sprague Dawley rats", "details": "rat, 5 mg/kg"}, "[7]": {"details": "Example 12, test compounds as hemioxalate salts"}, "[8]": {"details": "Example 13, glycinamides as hemioxalate salts"}}}
{"compound": "N[C@@H](Cc1c[nH]c2ccccc12)C(=O)NC1Cc2cc3c(cc2C1)OCO3", "note": "[5,6-MDAI-tryptophanamide]", "values": [{"measurement": "Serotonin levels in nucleus accumbens, compared to the vehicle group", "setting": "[1]; 2 hour period following dosing", "value": "significant increases"}, {"measurement": "Magnitude of effect on serotonin levels compared to MDMA", "setting": "[1]; nucleus accumbens", "value": "smaller in magnitude compared to MDMA"}, {"measurement": "Observations (approximate timecourse), behaviours significantly increased vs vehicle", "setting": "[2]", "value": "None"}, {"measurement": "Mean LogD", "setting": "[3]; [7]", "value": 2.31}, {"measurement": "Solubility", "setting": "[4]", "value": ">200", "unit": "µM"}]}
{"compound": "COC(=O)C1=C(C)NC(C)=C(C(=O)OCCN(C)Cc2ccccc2)C1c1cccc([N+](=O)[O-])c1", "note": "(centres unmarked) [Nicardipine, reference compound]", "values": [{"measurement": "solubility at 5 min", "setting": "[4]", "value": 22.1, "unit": "µM"}]}
{"compound": "CNC(C)Cc1ccc2c(c1)OCO2", "note": "(centres unmarked) [MDMA, 3,4-Methylenedioxy-N-methylamphetamine]", "values": [{"measurement": "Observations (approximate timecourse), behaviours significantly increased vs vehicle", "setting": "[2]", "value": "Flattened posture (~0-40 mins) and hind limb"}, {"measurement": "logD at 2 h", "setting": "[3]; pH 7.4", "value": 0.57}, {"measurement": "solubility at 5 min", "setting": "[4]", "value": "≥ 200", "unit": "µM"}, {"measurement": "Behavioural measures of serotonin syndrome", "setting": "[5]", "value": "induce"}, {"measurement": "Locomotion", "setting": "[5]", "value": "hyperlocomotion"}, {"measurement": "Monoamine neurotransmitter levels", "setting": "[5]", "value": "elevations"}, {"measurement": "Effect on locomotor activity (significant change in total distance travelled vs vehicle)", "setting": "[6]; 0-60 mins", "value": "↑↑↑ (↑↑↑, p < 0.001)"}, {"measurement": "Effect on locomotor activity (significant change in total distance travelled vs vehicle)", "setting": "[6]; 0-120 mins", "value": "↑↑↑ (↑↑↑, p < 0.001)"}, {"measurement": "Effect on locomotor activity (significant change in total distance travelled vs vehicle)", "setting": "[6]; 60-120 mins", "value": "↑↑↑ (↑↑↑, p < 0.001)"}]}
{"compound": "CC(Cc1ccc2c(c1)OCO2)NC(=O)CN", "note": "(centres unmarked) [3,4-MDA-glycinamide]", "values": [{"measurement": "Mean LogD", "setting": "[3]; [8]", "value": 1.08}, {"measurement": "LogD compared with that of MDMA", "setting": "[3]; Example 13, Octanol:PBS at pH 7.4", "value": "slightly greater than that of MDMA"}]}
{"compound": "CC(Cc1ccc2c(c1)OCO2)NC(=O)[C@@H](N)Cc1c[nH]c2ccccc12", "note": "(some centres unmarked) [3,4-MDA-tryptophanamide]", "values": [{"measurement": "Dopamine levels in nucleus accumbens, compared to the vehicle group", "setting": "[1]; 2 hour period following dosing", "value": "significant increases"}, {"measurement": "Noradrenaline levels in nucleus accumbens, compared to the vehicle group", "setting": "[1]; 2 hour period following dosing", "value": "significant increases"}, {"measurement": "Serotonin levels in nucleus accumbens, compared to the vehicle group", "setting": "[1]; 2 hour period following dosing", "value": "significant increases"}, {"measurement": "Magnitude of effect on serotonin levels compared to MDMA", "setting": "[1]; nucleus accumbens", "value": "smaller in magnitude compared to MDMA"}, {"measurement": "Magnitude of effects on dopamine and noradrenaline levels compared to MDMA", "setting": "[1]; nucleus accumbens", "value": "smaller in magnitude compared to MDMA"}, {"measurement": "Observations (approximate timecourse), behaviours significantly increased vs vehicle", "setting": "[2]", "value": "None"}, {"measurement": "Mean LogD", "setting": "[3]; [7]", "value": 1.97}, {"measurement": "Solubility", "setting": "[4]", "value": ">200", "unit": "µM"}]}
{"compound": "CC(Cc1ccc2c(c1)OCO2)N(C)C(=O)CN", "note": "(centres unmarked) [3,4-MDMA-glycinamide]", "values": [{"measurement": "Mean LogD", "setting": "[3]; [8]", "value": 0.66}]}
